Source: patent US20260015357A1, “MODULATORS OF NLRP3 INFLAMMASOME AND RELATED PRODUCTS AND METHODS” (Neumora Therapeutics, Inc., priority 2022, published 2026)

Legend:
NLRP3 inflammasome = biological target: T1, NLRP3 inflammasome (Homo sapiens, UniProt Q96P20); assay: NLRP3 inflammasome activation in LPS-primed, nigericin-activated THP1 macrophages, IL-1β AlphaLISA; type: cell-based; conditions: PMA-differentiated, 1 hr compound, Nigericin 6.7 uM 3 hrs, IL-1β in supernatant
T1 construct: host or cells: THP1 human acute monocytic leukemia cells, PMA-differentiated, LPS-primed
T1 sequence (Q96P20 whole entry): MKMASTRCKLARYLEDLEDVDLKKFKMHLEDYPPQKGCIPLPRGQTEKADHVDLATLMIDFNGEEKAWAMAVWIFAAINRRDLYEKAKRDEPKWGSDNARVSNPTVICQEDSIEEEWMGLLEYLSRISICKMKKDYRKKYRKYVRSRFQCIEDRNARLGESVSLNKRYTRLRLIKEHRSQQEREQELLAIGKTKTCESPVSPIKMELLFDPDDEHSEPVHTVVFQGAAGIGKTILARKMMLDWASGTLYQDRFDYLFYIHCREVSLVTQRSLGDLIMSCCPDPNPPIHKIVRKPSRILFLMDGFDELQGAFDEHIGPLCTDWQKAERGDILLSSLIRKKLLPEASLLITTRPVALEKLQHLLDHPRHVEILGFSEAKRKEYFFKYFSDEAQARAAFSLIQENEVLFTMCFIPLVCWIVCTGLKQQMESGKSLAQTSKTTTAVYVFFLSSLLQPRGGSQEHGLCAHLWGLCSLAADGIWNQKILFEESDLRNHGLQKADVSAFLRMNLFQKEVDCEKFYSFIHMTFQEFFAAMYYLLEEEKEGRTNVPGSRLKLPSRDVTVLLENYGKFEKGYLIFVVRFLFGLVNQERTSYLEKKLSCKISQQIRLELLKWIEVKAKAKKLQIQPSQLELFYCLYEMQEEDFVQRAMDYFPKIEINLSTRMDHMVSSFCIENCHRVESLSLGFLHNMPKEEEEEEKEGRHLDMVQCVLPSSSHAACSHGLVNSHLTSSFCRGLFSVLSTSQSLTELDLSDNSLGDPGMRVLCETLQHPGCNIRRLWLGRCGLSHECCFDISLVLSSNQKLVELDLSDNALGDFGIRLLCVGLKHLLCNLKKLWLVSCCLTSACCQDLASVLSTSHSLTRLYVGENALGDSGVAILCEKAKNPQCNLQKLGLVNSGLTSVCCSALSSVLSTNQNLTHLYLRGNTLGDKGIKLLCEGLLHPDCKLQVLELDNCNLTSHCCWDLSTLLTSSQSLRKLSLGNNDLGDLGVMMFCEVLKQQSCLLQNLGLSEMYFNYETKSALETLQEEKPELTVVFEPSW
Description: (§1) NLRP3 Inflammasome Activation and Cell Viability Assessment in THP1 Macrophages
(§2) THP1—Human acute monocytic leukemia cells were cultured (ATCC, cat #TIB-202) in Gibco RPMI-1640 medium (ThermoFisher cat #72400054) supplemented with 10% Heat Inactivated FBS at density between 3-8×10^5 viable cells/mi. The cells were then subcultured when the cell concentration reached 8×10^5 cells/mL (every 2-3 days).
(§3) The parameter wells were filled with 50 ul PBS and incubated at 37° C., 5% CO2 for 48 hrs.
(§4) After 48 hrs incubation, the PMA containing media was removed, and changed for 40 ul/well of fresh DMEM, 10% FBS, 1× GlutaMax and incubated at 37° C., 5% CO2 for 24 hrs.
(§5) The following day the cells were primed with LPS (E. coli) (Sigma, cat #L3129) […] in DMEM, 10% FBS, 1× GlutaMax for 3 hrs at 37° C., 5% CO2.
(§6) Following the LPS priming step, the cells were treated with compounds at 10 uM top final concentration, 1:4 dilution, 8 times: (10 uM, 2.5 uM, 0.625 uM, 0.156 uM, 0.039 uM, 0.0097 uM, 0.0024 uM, 0.0006 uM). DMSO was used as a vehicle control, and MCC950 (InvivoGen, cat #inh-mcc) was used at 1 uM as a positive control, and incubated for 1 hrs at 37° C., 5% CO2.
(§7) Following the 1 hr compound incubation, the NLRP3 inflammasome activation step was conducted by treating cells with Nigericin (InvivoGen, cat #tlrl-nig) at 6.7 uM final concentration for 3 hrs at 37° C., 5% CO2.
(§8) Thereafter, 30 ul samples of cells' supernatants were collected for cytokine analysis which was conducted on Hu IL-1β AlphaLISA (Perkin Elmer, cat #AL220C) and Hu IL-6 AlphaLISA (Perkin Elmer, cat #AL220C). The cells' viability was assessed by performing CellTiter-Glo Luminescent Assay (Promega, cat #G7572) according to the manufacturer's protocol.

IL-6 = IL-6 in supernatants of LPS-primed, nigericin-treated THP1 macrophages, Hu IL-6 AlphaLISA; type: cell-based; conditions: Homo sapiens, THP-1, PMA-differentiated, 1 hr compound, Nigericin 6.7 uM 3 hrs, IL-6 in supernatant
Description: as §1, §2, §3, §4, §5, §6, §7, §8

Row | Structure (SMILES) | IC50 (NLRP3 inflammasome) [nM] | IC50 (IL-6) [nM]
1 | CN1CCC[C@@H](N(C)c2nnc(-c3ccc(C#N)cc3O)c3ccn(C)c23)C1 [Compound 102] | 500 to 1000 | ≥ 10000
2 | Cn1ccc2c(-c3ccc(C#N)cc3O)nnc(N[C@@H]3CCCN(CCO)C3)c21 [Compound 147] | < 10 | ≥ 10000
3 | CNCCN1CCC[C@@H](Nc2nnc(-c3ccc(C#N)cc3O)c3ccn(C)c23)C1 [Compound 155] | 100 to 500 | ≥ 10000
4 | Cn1ccc2c(-c3ccc(C#N)cc3O)nnc(N[C@H]3CN(CCF)CC(F)(F)C3)c21 [Compound 149] | ≥ 10000 | ≥ 10000
5 | CN1CCC[C@@H](Nc2nnc(-c3ccc(Cl)cc3)c3cc[nH]c23)C1 [Compound 10] | 10 to 100 | 1000 to 5000
6 | CN1CCC[C@@H](Oc2nnc(-c3ccc(F)cc3O)c3ccn(C)c23)C1 [Compound 89] | 100 to 500 | ≥ 10000
7 | CN1CCC[C@@H](N(C)c2nnc(-c3ccc(C(F)(F)F)cc3)c3cc[nH]c23)C1 [Compound 25] | 100 to 500 | ≥ 10000
8 | CN1CCC[C@@H](Oc2nnc(-c3ccc(F)cc3O)c3ccoc23)C1 [Compound 91] | 100 to 500 | ≥ 10000
9 | CN1CCC[C@@H](Nc2nnc(-c3ccccc3O)c3c2ccn3C)C1 (single isomer, unassigned) [Compound 67] | 10 to 100 | ≥ 10000
10 | CN1CCC[C@@H](Nc2nnc(-c3ccc(F)cc3O)c3cc[nH]c23)C1 [Compound 4] | < 10 | 5000 to 10000
11 | CN1CCC[C@@H](Nc2nnc(-c3ncc(C(F)(F)F)cc3O)c3cnn(C)c23)C1 [Compound 166] | 10 to 100 | ≥ 10000
12 | CN1CCCC(Cc2nnc(-c3ccc(C(F)(F)F)cc3)c3cc[nH]c23)C1 (centres unmarked) [Compound 83] | 10 to 100 | 1000 to 5000

Other lines, results leading:

Row | IC50 (NLRP3 inflammasome) [nM] | IC50 (IL-6) [nM] | Structure (SMILES)
13 | 500 to 1000 | ≥ 10000 | CN1CCC[C@@H](N(C)c2nnc(-c3ccc(C(F)(F)F)cc3)c3ccsc23)C1 [Compound 95]
14 | 500 to 1000 | ≥ 10000 | Cc1cc(C(F)(F)F)ccc1-c1nnc(N[C@@H]2CCCN(C)C2)c2cc[nH]c12 [Compound 3]
15 | 100 to 500 | 5000 to 10000 | CN1CCC[C@@H](Oc2nnc(-c3ccc(C(F)(F)F)cc3)c3ccn(C)c23)C1 [Compound 85]
16 | 10 to 100 | ≥ 10000 | Cc1cc(C(F)(F)F)cnc1-c1nnc(N[C@@H]2CCCN(C)C2)c2c1cnn2C [Compound 137]
17 | 1000 to 10000 | ≥ 10000 | CN1CCC[C@@H](Nc2nnc(-c3ccc(C(F)(F)F)cc3)c3ncn(C)c23)C1 [Compound 30]
18 | 1000 to 10000 | ≥ 10000 | CN1CCC[C@@H](N(C)c2nnc(-c3ccc(C(F)(F)F)cc3)c3ccn(C)c23)C1 [Compound 27, (R)—N,1-dimethyl-N-(1-methylpiperidin-3-yl)-4-(4-(trifluoromethyl)phenyl)-1H-pyrrolo[2,3-d]pyridazin-7-amine]
19 | 10 to 100 | 5000 to 10000 | CN1CCC[C@@H](Nc2nnc(-c3ccc(C(F)(F)F)cc3)c3ccn(C)c23)C1 [Compound 26]
20 | 10 to 100 | ≥ 10000 | CN1CCC[C@@H](Nc2nnc(-c3ncc(C(F)(F)F)cc3Cl)c3ccn(C)c23)C1 [Compound 131]
21 | 100 to 500 | ≥ 10000 | CN1CCC[C@@H](Nc2nnc(-c3ccc(C#N)cc3)c3ccn(C)c23)C1 [Compound 79]
22 | 100 to 500 | ≥ 10000 | Cc1c[nH]c2c(N[C@@H]3CCCN(C)C3)nnc(-c3ccc(F)cc3)c12 [Compound 73]
23 | 100 to 500 | ≥ 10000 | Cc1cn(C)c2c(N[C@@H]3CCCN(C)C3)nnc(-c3ccc(C(F)(F)F)cc3)c12 [Compound 97]
24 | 10 to 100 | 5000 to 10000 | CN1CCC[C@@H](Nc2nnc(-c3ccc(C(F)(F)F)cc3)c3sncc23)C1 [Compound 64]
25 | 100 to 500 | ≥ 10000 | CN1CCC[C@@H](Nc2nnc(-c3ccc(C(F)(F)F)cc3)c3[nH]ccc23)C1 (single isomer, unassigned) [Compound 2]
